Test results reported in PMC12839112, “Synthesis and Bioactivity Assessment of Novel Quinolinone–Triazole Hybrids” (Biomolecules, 2025).

How the values were obtained:
A549 cell line = assay: Cytotoxicity, MTT assay, A549 cells; settings: Homo sapiens, A549, 24 h, read-out: % Cytotoxicity A549 (100 μΜ)
Procedure: (§1) The determination of the cell viability of HaCaT cells and the cell toxicity of A549 and A375 cell lines was performed according to Myriagkou et al. [57], via the MTT (3-(4,5-dimethylthiazol-2-yl)-2,5-diphenyltetrazolium bromide) assay. In a 96-well plate, cells were seeded at specific concentrations (30 × 10^4 cells/mL for HaCaT cells and 20 × 10^4 cells/mL for A549 and A375 cells) and incubated (37 °C, 5% CO2) for 24 h. Following this first incubation period, solutions of the tested compounds at various concentrations were added to the cells, and the plates were incubated for an additional 24 h. Upon the second incubation period, the appropriate volume of MTT solution (1 mg/mL in PBS, filtrated through a 0.22-μm filter) was added to each well, and the plate was incubated for 4 h, during which formazan crystals were formed. The crystals were dissolved by addition of 100 μL od DMSO in each cell and after 30 min of stirring, the absorbance was recorded at 450 nm using a microplate reader. All tests were undertaken on three replicates and compared to the control (untreated cells), the blank (medium), and the reference control (cells treated with 100 μM silibinin).
(§2) The cytotoxicity of the novel compounds was also measured via the mehtylthiazol tetrazolium (MTT) assay.

A375 cell line = assay: Cytotoxicity, MTT assay, A375 cells; settings: Homo sapiens, A-375, 24 h, read-out: % Cytotoxicity A375 (100 μΜ)
Procedure: as §1, §2

[1] = Cell viability, MTT assay, HaCaT cells; settings: human
Procedure: as §1, §2

[2] = Inhibition of linoleic acid peroxidation induced by AAPH radical; settings: 100 μM, 37 °C, pH 7.4
Procedure: The in vitro assays were performed at a concentration of 100 µM (a 10 mM stock solution in DMSO was used, from which several dilutions were made for the determination of IC50 values), at least in triplicate, and the standard deviation of absorbance was less than 10% of the mean. The compounds were diluted in 0.1% DMSO under sonification in an appropriate buffer in several dilutions. Statistical comparisons were made using Student’s t-test. A statistically significant difference was defined as p < 0.05. The results were compared to the corresponding reference compounds.
The determination of the ability of the synthesized compounds to inhibit linoleic acid peroxidation induced by the radical initiator 2,2-Azobis(2-amidinopropane) dihydrochloride (AAPH) was performed according to Hadjipavlou-Litina et al.. Ten microliters of the 16 mM sodium linoleate solution were added to the UV cuvette containing 0.93 mL of a 0.05 M phosphate buffer, pH 7.4, pre-thermostated at 37 °C. The oxidation reaction was initiated at 37 °C under air by the addition of 50 µL of a 40 mM AAPH solution, which was used as a free radical initiator. Oxidation was carried out in the presence of aliquots (10 µL) in the assay without antioxidants and monitored at 234 nm. Lipid oxidation was recorded in the presence of the same level of DMSO served as a negative control. results are compared to the appropriate standard compound Trolox.
In an attempt to assess the in vitro antioxidant potential of the synthesized compounds, their inhibitory activity against lipid peroxidation of linoleic acid sodium salt was examined, induced by AAPH radical under atmospheric oxygen at 37 °C. The anti-lipid peroxidation was recorded with UV spectrophotometrically. The assay is a quick and widely used method for the assessment of antioxidant activity.

[3] = biological target: T1, soybean lipoxygenase (LOX) (Glycine max, UniProt P08170); assay: Soybean LOX inhibition in vitro; assay type: biochemical; settings: for IC50: sodium linoleate substrate; for inhibition at 100 µM: 100 μM (0.1 mM), read-out: Inhibition of LOX (% at 100 μΜ)
T1 sequence (P08170 1-839): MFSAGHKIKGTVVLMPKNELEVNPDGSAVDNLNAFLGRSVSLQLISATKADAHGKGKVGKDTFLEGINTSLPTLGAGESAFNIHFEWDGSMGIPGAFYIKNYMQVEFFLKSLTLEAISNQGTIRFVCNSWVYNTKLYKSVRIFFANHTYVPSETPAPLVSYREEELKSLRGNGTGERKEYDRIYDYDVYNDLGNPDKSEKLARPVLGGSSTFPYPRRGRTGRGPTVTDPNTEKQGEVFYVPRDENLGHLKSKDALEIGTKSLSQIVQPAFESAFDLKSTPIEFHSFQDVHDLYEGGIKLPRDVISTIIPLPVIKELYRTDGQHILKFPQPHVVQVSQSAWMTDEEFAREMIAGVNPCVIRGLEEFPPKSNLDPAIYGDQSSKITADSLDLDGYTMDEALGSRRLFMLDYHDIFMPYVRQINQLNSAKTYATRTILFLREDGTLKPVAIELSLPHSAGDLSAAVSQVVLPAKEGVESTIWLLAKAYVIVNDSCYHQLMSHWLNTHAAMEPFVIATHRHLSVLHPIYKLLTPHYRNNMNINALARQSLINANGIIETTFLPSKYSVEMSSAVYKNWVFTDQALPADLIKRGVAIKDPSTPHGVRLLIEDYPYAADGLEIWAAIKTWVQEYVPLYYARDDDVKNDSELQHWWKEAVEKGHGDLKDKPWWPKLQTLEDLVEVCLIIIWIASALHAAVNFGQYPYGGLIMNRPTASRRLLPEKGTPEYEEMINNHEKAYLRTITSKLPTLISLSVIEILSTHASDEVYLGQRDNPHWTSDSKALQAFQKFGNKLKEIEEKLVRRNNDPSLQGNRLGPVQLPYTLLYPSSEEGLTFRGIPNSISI
Procedure: The compounds were diluted in 0.1% DMSO under sonification in an appropriate buffer in several dilutions. Statistical comparisons were made using Student’s t-test. A statistically significant difference was defined as p < 0.05.
The determination of the inhibition of soybean LOX for the synthesized compounds was performed according to Hadjipavlou-Litina et al.. The tested compounds were incubated at room temperature with sodium linoleate (0.1 mM) and 0.2 mL of enzyme solution (1/9 × 10^−4 w/v in saline). The method was based on the conversion of sodium linoleate to 13-hydroperoxylinoleic acid at 234 nm. In order to determine the […] values, different concentrations were used.
As evidence of anti-inflammatory activity, the quinolinone derivatives were examined for their ability to inhibit soybean lipoxygenase (LOX). LOX catalyzes the cleavage of arachidonic acid to leukotrienes that are found to play a crucial role in the pathogenesis of some inflammatory diseases.

in vitro = settings: human
Procedure: as §1, §2

Row | SMILES | IC50 [3] [µM] | cytotoxicity at 100 µM (A549 cell line) [%] | cytotoxicity at 100 µM (A375 cell line) [%] | viability at 24 h, 100 µM [1] [%] | Inhibition of Linoleic Acid Peroxidation (% at 100 μΜ) [2] [%] | inhibition at 100 µM [3] [%] | viability at 24 h, 100 µM (in vitro) [%]
1 | COc1cc(C2Oc3cc([C@H]4Oc5cc(O)cc(O)c5C(=O)[C@@H]4O)ccc3OC2CO)ccc1O (some centres unmarked) [Silibinin, silibinin, reference compound] | – | 57.4 | 12.6 | 47.2 | – | – | –
2 | C#CCNC(=O)c1c(O)c2ccccc2n(Cc2ccccc2)c1=O [4b, 1-benzyl-4-hydroxy-2-oxo-N-(prop-2-yn-1-yl)-1,2-dihydroquinoline-3-carboxamide] | 43.2 | 45.7 | 7.6 | 88.7 | 14.7 | – | –
3 | O=C(NCc1cn(Cc2ccccc2)nn1)c1c(O)c2ccccc2n(Cc2ccccc2)c1=O [5b, 1-benzyl-N-((1-benzyl-1H-1,2,3-triazol-4-yl)methyl)-4-hydroxy-2-oxo-1,2-dihydroquinoline-3-carboxamide] | 46 | 49.9 | 0 | 86.5 | 89.0 | – | –
4 | C#CCNC(=O)c1c(O)c2ccccc2n(CCCc2ccccc2)c1=O [4f, 4-hydroxy-2-oxo-1-(3-phenylpropyl)-N-(prop-2-yn-1-yl)-1,2-dihydroquinoline-3-carboxamide] | – | 0 | 0 | – | 81.1 | 49.3 | 76.9
5 | O=C(NCc1cn(Cc2ccccc2)nn1)c1c(O)c2ccccc2n(CCCc2ccccc2)c1=O [5f, N-((1-benzyl-1H-1,2,3-triazol-4-yl)methyl)-4-hydroxy-2-oxo-1-(3-phenylpropyl)-1,2-dihydroquinoline-3-carboxamide] | 50 | 12.5 | 23.7 | 100 | 98.0 | – | –
6 | CC(C)=CCn1cc(CNC(=O)c2c(O)c3ccccc3n(Cc3ccccc3)c2=O)nn1 [5j, 1-benzyl-4-hydroxy-N-((1-(3-methylbut-2-en-1-yl)-1H-1,2,3-triazol-4-yl)methyl)-2-oxo-1,2-dihydroquinoline-3-carboxamide] | 41 | 18.8 | 0 | 100 | 92.0 | – | –
7 | CC(C)=CCn1cc(CNC(=O)c2c(O)c3ccccc3n(CC=Cc3ccccc3)c2=O)nn1 [5h, 1-cinnamyl-4-hydroxy-N-((1-(3-methylbut-2-en-1-yl)-1H-1,2,3-triazol-4-yl)methyl)-2-oxo-1,2-dihydroquinoline-3-carboxamide] | – | 0 | 0 | 98.9 | 18.7 | 44.5 | –
8 | C#CCNC(=O)c1c(O)c2ccccc2n(CC)c1=O [4c, 1-ethyl-4-hydroxy-2-oxo-N-(prop-2-yn-1-yl)-1,2-dihydroquinoline-3-carboxamide] | 22.5 | 16.4 | 0.2 | 90.5 | 100 | – | –
9 | Cc1c(C)c2c(c(C)c1O)CCC(C)(C(=O)O)O2 (centres unmarked) [Trolox, reference compound] | – | – | – | – | 88.0 | – | –
10 | C#CCNC(=O)c1c(O)c2ccccc2n(CCCCCCCC)c1=O [4e, 4-hydroxy-1-octyl-2-oxo-N-(prop-2-yn-1-yl)-1,2-dihydroquinoline-3-carboxamide] | 48.3 | 33.7 | 22.6 | 76.2 | 34.9 | – | –
11 | C#CCNC(=O)c1c(O)c2ccccc2n(C)c1=O [4a, 4-hydroxy-1-methyl-2-oxo-N-(prop-2-yn-1-yl)-1,2-dihydroquinoline-3-carboxamide] | – | 0 | 7 | 61.5 | 42.7 | – | –

The next lines start with results.

Row | IC50 [3] [µM] | SMILES | cytotoxicity at 100 µM (A549 cell line) [%] | cytotoxicity at 100 µM (A375 cell line) [%] | viability at 24 h, 100 µM [1] [%] | Inhibition of Linoleic Acid Peroxidation (% at 100 μΜ) [2] [%] | inhibition at 100 µM [3] [%] | viability at 24 h, 100 µM (in vitro) [%]
12 | 51.2 | C#CCNC(=O)c1c(O)c2ccccc2n(CC=Cc2ccccc2)c1=O [4g, 1-cinnamyl-4-hydroxy-2-oxo-N-(prop-2-yn-1-yl)-1,2-dihydroquinoline-3-carboxamide] | 35.2 | 11.7 | 100 | 27.6 | – | –
13 | 10 | Cn1c(=O)c(C(=O)NCc2cn(Cc3ccccc3)nn2)c(O)c2ccccc21 [5a, N-((1-benzyl-1H-1,2,3-triazol-4-yl)methyl)-4-hydroxy-1-methyl-2-oxo-1,2-dihydroquinoline-3-carboxamide] | 24.2 | 0 | 100 | 98.0 | – | –
14 | 51.5 | CCn1c(=O)c(C(=O)NCc2cn(Cc3ccccc3)nn2)c(O)c2ccccc21 [5c, N-((1-benzyl-1H-1,2,3-triazol-4-yl)methyl)-1-ethyl-4-hydroxy-2-oxo-1,2-dihydroquinoline-3-carboxamide] | 0 | 0 | 100 | 94.0 | – | –
15 | 45 | CCn1c(=O)c(C(=O)NCc2cn(C/C=C/c3ccccc3)nn2)c(O)c2ccccc21 [5e, (E)-N-((1-cinnamyl-1H-1,2,3-triazol-4-yl)methyl)-1-ethyl-4-hydroxy-2-oxo-1,2-dihydroquinoline-3-carboxamide] | 7.3 | 35.2 | 27.6 | 91.0 | – | –
16 | 47.5 | CCn1c(=O)c(C(=O)NCc2cn(CCCc3ccccc3)nn2)c(O)c2ccccc21 [5d, 1-ethyl-4-hydroxy-2-oxo-N-((1-(3-phenylpropyl)-1H-1,2,3-triazol-4-yl)methyl)-1,2-dihydroquinoline-3-carboxamide] | 28.9 | 10.5 | 99.6 | 92.0 | – | –
17 | 75 | CC(C)=CCn1c(=O)c(C(=O)NCc2cn(Cc3ccccc3)nn2)c(O)c2ccccc21 [5g, N-((1-benzyl-1H-1,2,3-triazol-4-yl)methyl)-4-hydroxy-1-(3-methylbut-2-en-1-yl)-2-oxo-1,2-dihydroquinoline-3-carboxamide] | 13.4 | 46.8 | 100 | 83.0 | – | –
18 | 70 | CCn1c(=O)c(C(=O)NCc2cn(CC=C(C)C)nn2)c(O)c2ccccc21 [5i, 1-ethyl-4-hydroxy-N-((1-(3-methylbut-2-en-1-yl)-1H-1,2,3-triazol-4-yl)methyl)-2-oxo-1,2-dihydroquinoline-3-carboxamide] | – | – | – | 96.0 | – | –
